Assay results: patent US20120010404A1, “OXAZINE DYES WITH IMPROVED AQUEOUS SOLUBILITY” (SIGMA-ALDRICH CO., priority 2008, published 2012)

Assay: Fluorescence quenching with tryptophan (steady-state, Stern-Volmer)
Assay type: physicochemical
Conditions: phosphate buffered solutions, pH = 8.0, 25° C.; in M-1 (unit assumed)
Description: FIG. 4 illustrates the fluorescence quenching by tryptophan. Shown is the fluorescence of Dye 3 in the absence and presence of various concentration of tryptophan (Trp) in phosphate buffer (pH 8) as a function of wavelength.
Steady-state fluorescence spectroscopy was performed for Dye 2, Dye 3, Dye 14, and Mr121 dye in presence of tryptophan at 25° C. in phosphate buffer.
For evaluating the quenching efficiency, the steady-state fluorescence quenching results were analyzed following the Stern-Volmer equation F0/F=1+KQ[Q], where Fo and F are the fluorescence intensities in the absence and presence of tryptophan and KQ is a static Stern-Volmer constant.

Tryptophan Stern-Volmer static quenching constant, KQ | Structure (SMILES)
263 ± 24 | CC1(C)CC(CS(=O)(=O)[O-])c2cc3c(cc2=[N+]1CCCC(=O)O)Oc1cc2c(cc1N=3)CCCN2CCCS(=O)(=O)O (stereo not drawn) [Dye 2, sodium 3-(11-(3-carboxypropyl)-10,10-dimethyl-8-(sulfonatomethyl)-2,3,4,8,9,10-hexahydro-1H-dipyrido[3,2-b:2′,3′-i]phenoxazin-11-ium-1-yl)propane-1-sulfonate]
320 ± 26 | CC1CC(C)(C)N(CCCS(=O)(=O)O)c2cc3c(cc21)N=c1cc2c(cc1O3)=[N+](CCCC(=O)O)C(C)(C)CC2CS(=O)(=O)[O-] (stereo not drawn) [Dye 3, sodium 3-(11-(3-carboxypropyl)-2,2,4,10,10-pentamethyl-8-(sulfonatomethyl)-2,3,4,8,9,10-hexahydro-1H-dipyrido[3,2-b:2′,3′-i]phenoxazin-11-ium-1-yl)propane-1-sulfonate]
269 ± 22 | CC1(C)CC(CS(=O)(=O)[O-])c2cc3c(cc2N1CCCS(=O)(=O)[O-])Oc1cc2c(cc1=N3)C(CS(=O)(=O)[O-])CC(C)(C)[N+]=2CCCC(=O)O.[Na+].[Na+] (stereo not drawn) [Dye 14, disodium (11-(3-carboxypropyl)-2,2,10,10-tetramethyl-1-(3-sulfonatopropyl)-2,3,4,8,9,10-hexahydro-1H-dipyrido[3,2-b:2′,3′-i]phenoxazine-11-ium-4,8-diyl)dimethanesulfonate]
